Measured values taken from ChEMBL document CHEMBL1799935, “Identification of new inhibitors of protein kinase R guided by statistical modeling” (Bioorg Med Chem Lett, 2011).
The source made the active and inactive calls. The calls are words filed in the database; no cut-off is given here.

Target: T1, Interferon-induced, double-stranded RNA-activated protein kinase (Homo sapiens, UniProt P19525)
Experiment: Inhibition of human recombinant PKR autophosphorylation using poly[I:C] after 10 mins by luminescent assay
Details: not given

T1 sequence (P19525 whole entry): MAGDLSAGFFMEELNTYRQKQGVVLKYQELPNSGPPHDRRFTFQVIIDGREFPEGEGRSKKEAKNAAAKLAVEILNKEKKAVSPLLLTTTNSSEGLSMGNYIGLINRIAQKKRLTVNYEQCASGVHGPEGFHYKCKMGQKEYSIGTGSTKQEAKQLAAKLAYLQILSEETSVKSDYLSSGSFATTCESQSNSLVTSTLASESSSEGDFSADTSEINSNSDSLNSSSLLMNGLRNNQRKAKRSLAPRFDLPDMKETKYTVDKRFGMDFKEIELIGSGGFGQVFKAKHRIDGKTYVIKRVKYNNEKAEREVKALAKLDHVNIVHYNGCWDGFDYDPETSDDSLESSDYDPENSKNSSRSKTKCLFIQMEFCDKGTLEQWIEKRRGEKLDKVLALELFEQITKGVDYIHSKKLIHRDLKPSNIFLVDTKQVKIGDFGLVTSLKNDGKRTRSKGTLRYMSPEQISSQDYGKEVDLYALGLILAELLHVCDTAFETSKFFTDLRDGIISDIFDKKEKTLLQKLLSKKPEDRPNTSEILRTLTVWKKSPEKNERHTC

Structure (SMILES) | IC50 [µM]
Cc1[nH]c2ccccc2c1-c1ccnc(NCCO)n1 | 11
COC(=O)c1ccc2c(-c3ccnc(NCCO)n3)c[nH]c2c1 | 9
O=C1Nc2cc(Br)ccc2/C1=C1/Nc2ccccc2/C1=N\O [6BIO] | 0.6
Cc1[nH]c2ccccc2c1-c1ccnc(NCc2cccnc2)n1 | 45
N#CCCc1ccc2c(c1)C1Nc3ccc([N+](=O)[O-])cc3C1CC(=O)N2 (configuration not stated) | 3.5
Cc1[nH]c2ccc(Cl)cc2c1-c1ccnc(Nc2cccc(Cl)c2)n1 | 2.5
O=c1nncc(Nc2ccc3cn[nH]c3c2)[nH]1 | 13
O=C1NC(=O)c2c1c1c3ccccc3[nH]c1n1cncc21 [ISOGRANULATIMIDE] | < 0.1
O=C(Nc1cccc(Nc2nccc(Nc3cccc(C(F)(F)F)c3)n2)c1)C1CC1 [ANILINOPYRIMIDINE1] | 20
Cc1[nH]c2ccccc2c1-c1ccnc(Nc2cccnc2)n1 | 0.1
COc1ccc2[nH]c(C)c(-c3ccnc(Nc4ccc(Cl)cc4)n3)c2c1 | 50
FC(F)(F)c1nnc2ccc(NCCc3c[nH]c4ccccc34)nn12 | 19
O=C1NC(=O)c2c1c1c3ccccc3[nH]c1c1[nH]c3cc(Br)ccc3c21 | 6
Fc1ccc(Nc2nccc(-c3c(-c4ccccc4)[nH]c4ccccc34)n2)cc1 | 7
c1cc(-c2cnn3cc(-c4ccc(OCCN5CCCCC5)cc4)cnc23)ccn1 [DORSOMORPHIN] | 16
Cc1[nH]c2ccccc2c1-c1ccnc(N2CCN(c3ccc(F)cc3)CC2)n1 | > 100
NC(=O)Nc1sc(-c2ccc(F)cc2)cc1C(N)=O | 0.25
Cc1[nH]c2ccccc2c1-c1ccnc(N2CCOCC2)n1 | 90
Cc1cc(Nc2nc(-c3ccccc3)nc3ccccc23)[nH]n1 | 15
Nc1nc(Nc2ccc(S(N)(=O)=O)cc2)nn1C(=O)Nc1c(F)cccc1F | 8
O=C1Nc2ccccc2/C1=C1/Nc2ccccc2/C1=N\OCCC(O)CO (configuration not stated) | < 0.1
C=C1NNC(=O)N=C1Nc1ccc2cn[nH]c2c1 | 16
N#C/C(=C1/Nc2ccccc2S1)c1ccnc(NCCc2cccnc2)n1 | < 0.1
COc1ccc2c(c1)/C(=C/c1cnc[nH]1)C(=O)N2 [SU-9516] | 5
Cn1ncc2c(N3CCOCC3)nc(NCCc3c[nH]c4ccccc34)nc21 [TDR79432] | 11
O=C1NC(=O)/C(=C/c2c[nH]c3ccccc23)N1 | 10.5
c1ccc2c(CCNc3nccc(-c4c[nH]nc4-c4ccncc4)n3)c[nH]c2c1 | 51

Structure (SMILES) | IC50 [µM]
NCc1ccc(C(=O)N/N=C2\C(=O)Nc3ccc(Br)cc32)cc1 | 12
CCN(CC)C(=O)c1ccc(Nc2nc(OCC3CCCCC3)c3nc[nH]c3n2)cc1 | 2
Cc1[nH]c2ccccc2c1-c1ccnc(Nc2ccccc2Cl)n1 | 19
Cc1[nH]c2ccccc2c1-c1ccnc(N2CCCC2)n1 | > 100
Cc1[nH]c2ccccc2c1-c1ccnc(NC(CO)C(C)C)n1 (configuration not stated) | 50
COC(=O)c1ccc2c(-c3ccnc(NCCN4CCOCC4)n3)c[nH]c2c1 | 18
Cc1[nH]c2ccc(Cl)cc2c1-c1ccnc(NCc2cccnc2)n1 | 48
COc1ccc2[nH]c(C)c(-c3ccnc(NC4CCCC4)n3)c2c1 | 1.5
Cc1[nH]c2ccccc2c1-c1ccnc(N2CCN(c3ccccn3)CC2)n1 | > 100
COc1ccc(Nc2nccc(-c3c(C)[nH]c4ccc(OC)cc34)n2)cc1 | 55
CC(C)n1cnc2c(Nc3cccc(Cl)c3)nc(NCCO)nc21 | 16
Fc1ccc(N2CCN(c3nccc(-c4c[nH]c5ccccc45)n3)CC2)cc1 | > 100
Cc1[nH]c2ccc(Cl)cc2c1-c1ccnc(NC2CCCC2)n1 | 8
O=C1NC(=O)/C(=C/c2c[nH]c3ccc(Br)cc23)N1 | 4
c1ccc(-c2[nH]c3ccccc3c2-c2ccnc(NCCN3CCOCC3)n2)cc1 | 12
Cc1[nH]c2ccc(Cl)cc2c1-c1ccnc(N2CCN(c3ccc(F)cc3)CC2)n1 | > 100
Cc1[nH]c2ccc(Cl)cc2c1-c1ccnc(N2CCCC2)n1 | > 100
Cc1[nH]c2ccccc2c1-c1ccnc(Nc2ccc(Cl)cc2)n1 | 0.6
CN1C(=O)NC(=O)/C(=C\c2c[nH]c3ccc(O)cc23)C1=O | 3
Cc1[nH]c2ccccc2c1-c1ccnc(Nc2cccc(Cl)c2)n1 | 0.3
Nc1n[nH]c2nc3ccccc3nc12 [QUINOXALINE1] | 6
COc1ccc2c(c1)[nH]c1c(N3CCN(C(N)=O)CC3)ncnc12 | 13
CSc1cccc(N/C=C2\C(=O)Nc3ccccc32)c1 | 2.5
COc1ccc2c(c1)/C(=N/NC(=O)c1cc(Br)ccc1O)C(=O)N2 | 9.4
Nc1ncnc2[nH]nc(Nc3ccc(F)cc3)c12 | 5
Cc1[nH]c2ccc(Cl)cc2c1-c1ccnc(Nc2ccc(N3CCN(C)CC3)cc2)n1 | 0.1
O=Nc1c(-c2c(O)[nH]c3ccccc23)[nH]c2ccccc12 [INDIRUBIN-3-MONOXIME] | < 0.1

Structure (SMILES) | IC50 [µM]
Cc1[nH]c2ccccc2c1-c1ccnc(Nc2ccc(F)c(F)c2)n1 | 1.5
COCCCNc1nccc(-c2c(C)[nH]c3ccccc23)n1 | 1.5
O=C(O)/C=C/c1cc(Br)c(Br)c(Br)c1Br | 7
C=C1NNC(=O)/C1=N\Nc1ccc(S(N)(=O)=O)cc1 | 11
O=C(O)c1ccc2c3c1cccc3c(=O)n1c3ccccc3nc21 | < 0.1
O=C1NCc2c1c1c3ccccc3n3c1c1c2c2ccccc2n1C1CCC3O1 (configuration not stated) | 0.75
c1ccc(-c2[nH]c3ccccc3c2-c2ccnc(NCc3cccnc3)n2)cc1 | > 100
Cc1[nH]c2ccccc2c1-c1ccnc(Nc2ccc(F)cc2)n1 | 0.15
CCn1cnc2c(Nc3cccc(Cl)c3)nc(N[C@@H]3CCCC[C@@H]3N)nc21 | 3
CN1CCN(c2ccc(Nc3ncnc4ccc([N+](=O)[O-])cc34)cc2)CC1 | 15
Oc1c2ccccc2c2c3c(cccc13)N=N2 [SP-600125] | 8
COc1ccc2[nH]cc(-c3ccnc(NCCN4CCOCC4)n3)c2c1 | > 100
Cc1[nH]c2ccc(Cl)cc2c1-c1ccnc(NCCN2CCOCC2)n1 | 12
N#Cc1cnc2cnc(NCc3cccnc3)cc2c1Nc1ccc(F)c(Cl)c1 | 0.25
Nc1nc(Nc2ccc(OC(F)(F)F)cc2)c2nc[nH]c2n1 | 20
O=C1NC(=O)/C(=C\c2c[nH]c3ccccc23)N1 | 11
O=C1Cc2ccc(Oc3ccc4c(c3)NC(=O)C4)cc2N1 | 14
Nc1nc(Nc2ccc(S(N)(=O)=O)cc2)nn1C(=S)Nc1c(F)cccc1F | 1.6
COC(=O)c1ccc2c(-c3ccnc(SCCN(C)C)n3)c[nH]c2c1 | > 100
COC(=O)[C@]1(O)C[C@@H]2O[C@@]1(C)n1c3ccccc3c3c4c(c5c6ccccc6n2c5c31)C(=O)NC4 (single isomer, unassigned) | < 0.1
Nc1cccc(-c2cc3c(Oc4cccc(O)c4)ncnc3[nH]2)c1 | 4
OCCNc1nccc(-c2c[nH]c3ccccc23)n1 | 11
COCCCNc1nccc(-c2c(C)[nH]c3ccc(Cl)cc23)n1 | 3
Cc1[nH]c2ccccc2c1-c1ccnc(NCCc2c[nH]c3ccccc23)n1 | 9
c1ccc(-c2[nH]c3ccccc3c2-c2ccnc(NC3CCCC3)n2)cc1 | > 100
Cn1nc2c3c(cccc31)C(=O)c1ccccc1-2 | 12

Tested on: Vero
Experiment: Cytotoxicity against african green monkey Vero cells assessed as cell survival at up to 100 uM after 48 hrs by MTS assay
Type: cell-based
Details: chlorocebus sabaeus

Structure (SMILES) | Activity
Cc1[nH]c2ccccc2c1-c1ccnc(NCCc2c[nH]c3ccccc23)n1 | Non-toxic

Tested on: not listed separately
Experiment: Cytotoxicity against mouse bone marrow macrophages assessed as cell survival at up to 100 uM after 48 hrs by MTS assay
Type: cell-based
Details: macrophage

Structure (SMILES) | Activity
Cc1[nH]c2ccccc2c1-c1ccnc(NCCc2c[nH]c3ccccc23)n1 | Non-toxic

Tested on: not listed separately
Experiment: Cytotoxicity against mouse bone marrow macrophages assessed as cell survival at 30 uM after 24 hrs by photomicroscopy analysis
Type: cell-based
Details: macrophage

Structure (SMILES) | Activity
Cc1[nH]c2ccccc2c1-c1ccnc(NCCc2c[nH]c3ccccc23)n1 | Non-toxic

Target: T1, Interferon-induced, double-stranded RNA-activated protein kinase
Experiment: Competitive inhibition of human recombinant PKR
Details: not given

Structure (SMILES) | Ki [µM]
Cc1[nH]c2ccccc2c1-c1ccnc(NCCc2c[nH]c3ccccc23)n1 | 3.4

Target: T2, Interferon-induced, double-stranded RNA-activated protein kinase (Mus musculus) (UniProt Q03963)
T2 sequence (whole entry): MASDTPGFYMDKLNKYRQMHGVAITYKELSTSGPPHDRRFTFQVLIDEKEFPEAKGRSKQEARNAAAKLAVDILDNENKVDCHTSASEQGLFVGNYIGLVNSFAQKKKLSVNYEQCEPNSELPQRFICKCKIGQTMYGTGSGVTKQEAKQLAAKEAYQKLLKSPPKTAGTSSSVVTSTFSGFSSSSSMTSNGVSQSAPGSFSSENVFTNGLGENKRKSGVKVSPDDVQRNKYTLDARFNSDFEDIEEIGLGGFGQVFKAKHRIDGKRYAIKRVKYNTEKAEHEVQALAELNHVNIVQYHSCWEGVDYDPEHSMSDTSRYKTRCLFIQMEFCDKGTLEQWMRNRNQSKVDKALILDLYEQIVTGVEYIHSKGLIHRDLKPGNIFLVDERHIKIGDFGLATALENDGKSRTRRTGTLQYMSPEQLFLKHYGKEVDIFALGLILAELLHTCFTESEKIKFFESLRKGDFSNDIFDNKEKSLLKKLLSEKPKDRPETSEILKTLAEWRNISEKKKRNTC
Experiment: Inhibition of poly[I:C]-induced PKR autophosphorylation mouse bone marrow macrophages treated immediately before addition of poly[I:C] by Western blotting
Details: not given

Structure (SMILES) | inhibition
Cc1[nH]c2ccccc2c1-c1ccnc(NCCc2c[nH]c3ccccc23)n1 | Dose-dependent effect

Target: T2, Interferon-induced, double-stranded RNA-activated protein kinase (Mus musculus)
Experiment: Inhibition of poly[I:C]-induced PKR autophosphorylation mouse bone marrow macrophages at 40 uM treated immediately before addition of poly[I:C] by Western blotting
Details: not given

Structure (SMILES) | inhibition
c1ccc(-c2[nH]c3ccccc3c2-c2ccnc(NCc3cccnc3)n2)cc1 | inactive
c1ccc(-c2[nH]c3ccccc3c2-c2ccnc(NC3CCCC3)n2)cc1 | inactive
